Source: PubChem BioAssay (NCI)
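Following 48 hours of exposure in 96-well plates, responses at five concentrations were used to interpolate endpoints linearly. GI50 is the concentration that inhibits growth by half. TGI: concentration producing complete growth inhibition.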

Experiments:
Assay in all cases: NCI tumour cell line growth inhibition, 48 h
786-0 renal = test system: 786-0 renal
A498 renal = test system: A498 renal
A549 NSCLC = test system: A549 NSCLC
ACHN renal = test system: ACHN renal
BT-549 breast = test system: BT-549 breast
CAKI-1 renal = test system: CAKI-1 renal
CCRF-CEM leukemia = test system: CCRF-CEM leukemia
COLO 205 colon = test system: COLO 205 colon
DU-145 prostate = test system: DU-145 prostate
EKVX NSCLC = test system: EKVX NSCLC
HCC-2998 colon = test system: HCC-2998 colon
HCT-116 colon = test system: HCT-116 colon
HCT-15 colon = test system: HCT-15 colon
HL-60(TB) leukemia = test system: HL-60(TB) leukemia
HOP-62 NSCLC = test system: HOP-62 NSCLC
HOP-92 NSCLC = test system: HOP-92 NSCLC
HS 578T breast = test system: HS 578T breast
HT29 colon = test system: HT29 colon
IGROV1 ovarian = test system: IGROV1 ovarian
K-562 leukemia = test system: K-562 leukemia
KM12 colon = test system: KM12 colon
LOX IMVI melanoma = test system: LOX IMVI melanoma
M14 melanoma = test system: M14 melanoma
MALME-3M melanoma = test system: MALME-3M melanoma
MCF7 breast = test system: MCF7 breast
MDA-MB-231 breast = test system: MDA-MB-231 breast
MDA-MB-435 = test system: MDA-MB-435
MOLT-4 leukemia = test system: MOLT-4 leukemia
NCI-H226 lung = test system: NCI-H226 lung
NCI-H23 lung = test system: NCI-H23 lung
NCI-H460 lung = test system: NCI-H460 lung
NCI-H522 lung = test system: NCI-H522 lung
NCI/ADR-RES ovarian = test system: NCI/ADR-RES ovarian
OVCAR-3 ovarian = test system: OVCAR-3 ovarian
OVCAR-4 ovarian = test system: OVCAR-4 ovarian
OVCAR-5 ovarian = test system: OVCAR-5 ovarian
OVCAR-8 ovarian = test system: OVCAR-8 ovarian
PC-3 prostate = test system: PC-3 prostate
RPMI-8226 leukemia = test system: RPMI-8226 leukemia
RXF 393 renal = test system: RXF 393 renal
SF-268 CNS = test system: SF-268 CNS
SF-295 CNS = test system: SF-295 CNS
SF-539 CNS = test system: SF-539 CNS
SK-MEL-2 melanoma = test system: SK-MEL-2 melanoma
SK-MEL-28 melanoma = test system: SK-MEL-28 melanoma
SK-MEL-5 melanoma = test system: SK-MEL-5 melanoma
SK-OV-3 ovarian = test system: SK-OV-3 ovarian
SN12C renal = test system: SN12C renal
SNB-19 CNS = test system: SNB-19 CNS
SNB-75 CNS = test system: SNB-75 CNS
SR leukemia = test system: SR leukemia
SW-620 colon = test system: SW-620 colon
T-47D breast = test system: T-47D breast
TK-10 renal = test system: TK-10 renal
U251 CNS = test system: U251 CNS
UACC-257 melanoma = test system: UACC-257 melanoma
UACC-62 melanoma = test system: UACC-62 melanoma
UO-31 renal = test system: UO-31 renal

CCCC(=O)OC[n+]1ccc(-c2c(COC(=O)NC(C)C)c(COC(=O)NC(C)C)c3n2CCC3)cc1
TGI (786-0 renal): > 100 µM | TGI (A498 renal): > 100 µM | TGI (A549 NSCLC): > 100 µM | TGI (ACHN renal): > 100 µM | TGI (BT-549 breast): > 100 µM | TGI (CAKI-1 renal): > 100 µM | TGI (CCRF-CEM leukemia): > 100 µM | TGI (COLO 205 colon): > 100 µM | TGI (DU-145 prostate): > 100 µM | TGI (EKVX NSCLC): > 100 µM | TGI (HCC-2998 colon): > 100 µM | TGI (HCT-116 colon): > 100 µM | TGI (HCT-15 colon): > 100 µM | TGI (HL-60(TB) leukemia): > 100 µM | TGI (HOP-62 NSCLC): > 100 µM | TGI (HOP-92 NSCLC): > 100 µM | TGI (HS 578T breast): > 100 µM | TGI (HT29 colon): > 100 µM | TGI (IGROV1 ovarian): > 100 µM | TGI (K-562 leukemia): > 100 µM | TGI (KM12 colon): > 100 µM | TGI (LOX IMVI melanoma): > 100 µM | TGI (M14 melanoma): > 100 µM | TGI (MALME-3M melanoma): > 100 µM | TGI (MCF7 breast): > 100 µM | TGI (MDA-MB-231 breast): > 100 µM | TGI (MDA-MB-435): > 100 µM | TGI (MOLT-4 leukemia): > 100 µM | TGI (NCI-H226 lung): > 100 µM | TGI (NCI-H23 lung): > 100 µM | TGI (NCI-H460 lung): > 100 µM | TGI (NCI-H522 lung): > 100 µM | TGI (NCI/ADR-RES ovarian): > 100 µM | TGI (OVCAR-3 ovarian): > 100 µM | TGI (OVCAR-4 ovarian): > 100 µM | TGI (OVCAR-5 ovarian): > 100 µM | TGI (OVCAR-8 ovarian): > 100 µM | TGI (PC-3 prostate): > 100 µM | TGI (RPMI-8226 leukemia): > 100 µM | TGI (RXF 393 renal): > 100 µM | TGI (SF-268 CNS): > 100 µM | TGI (SF-295 CNS): > 100 µM | TGI (SF-539 CNS): > 100 µM | TGI (SK-MEL-2 melanoma): > 100 µM | TGI (SK-MEL-28 melanoma): > 100 µM | TGI (SK-MEL-5 melanoma): > 100 µM | TGI (SK-OV-3 ovarian): > 100 µM | TGI (SN12C renal): > 100 µM | TGI (SNB-19 CNS): > 100 µM | TGI (SNB-75 CNS): > 100 µM | TGI (SR leukemia): > 100 µM | TGI (SW-620 colon): > 100 µM | TGI (T-47D breast): > 100 µM | TGI (TK-10 renal): > 100 µM | TGI (U251 CNS): > 100 µM | TGI (UACC-257 melanoma): > 100 µM | TGI (UACC-62 melanoma): > 100 µM | TGI (UO-31 renal): > 100 µM

O=c1oc2ccc(Br)cc2c(=O)n1-c1ccc(Cl)cc1F
GI50 (786-0 renal): 2.38 µM | TGI (786-0 renal): 7.11 µM | GI50 (A498 renal): 0.194 µM | TGI (A498 renal): 0.772 µM | GI50 (A549 NSCLC): 2.9 µM | TGI (A549 NSCLC): > 94.8 µM | GI50 (ACHN renal): 1.22 µM | TGI (ACHN renal): 12.9 µM | GI50 (BT-549 breast): 0.48 µM | TGI (BT-549 breast): 2.49 µM | GI50 (CAKI-1 renal): 0.821 µM | TGI (CAKI-1 renal): 4.37 µM | GI50 (CCRF-CEM leukemia): 2.38 µM | TGI (CCRF-CEM leukemia): 11.7 µM | GI50 (COLO 205 colon): 2.99 µM | TGI (COLO 205 colon): 9.93 µM | GI50 (DU-145 prostate): 1.86 µM | TGI (DU-145 prostate): 21.3 µM | GI50 (EKVX NSCLC): 1.45 µM | TGI (EKVX NSCLC): 7.81 µM | GI50 (HCC-2998 colon): 2.68 µM | TGI (HCC-2998 colon): 9.53 µM | GI50 (HCT-116 colon): 1.14 µM | TGI (HCT-116 colon): 4.33 µM | GI50 (HCT-15 colon): 1.7 µM | TGI (HCT-15 colon): 9.52 µM | GI50 (HL-60(TB) leukemia): 1.12 µM | TGI (HL-60(TB) leukemia): 4.96 µM | GI50 (HOP-62 NSCLC): 2.17 µM | TGI (HOP-62 NSCLC): 9.13 µM | GI50 (HOP-92 NSCLC): 0.179 µM | TGI (HOP-92 NSCLC): 0.618 µM | GI50 (HS 578T breast): 0.553 µM | TGI (HS 578T breast): 5.69 µM | GI50 (HT29 colon): 3.35 µM | TGI (HT29 colon): > 34 µM | GI50 (IGROV1 ovarian): 0.61 µM | TGI (IGROV1 ovarian): 17.2 µM | GI50 (K-562 leukemia): 0.646 µM | TGI (K-562 leukemia): > 100 µM | GI50 (KM12 colon): 2.03 µM | TGI (KM12 colon): 4.87 µM | GI50 (LOX IMVI melanoma): 0.827 µM | TGI (LOX IMVI melanoma): 4.54 µM | GI50 (M14 melanoma): 0.925 µM | TGI (M14 melanoma): 6.24 µM | GI50 (MALME-3M melanoma): 0.664 µM | TGI (MALME-3M melanoma): 3.32 µM | GI50 (MCF7 breast): 1.66 µM | TGI (MCF7 breast): 10.1 µM | GI50 (MDA-MB-231 breast): 0.897 µM | TGI (MDA-MB-231 breast): 5.99 µM | GI50 (MDA-MB-435): 1.35 µM | TGI (MDA-MB-435): 6.23 µM | GI50 (MOLT-4 leukemia): 1.7 µM | TGI (MOLT-4 leukemia): 5.22 µM | GI50 (NCI-H226 lung): 1.43 µM | TGI (NCI-H226 lung): 5.11 µM | GI50 (NCI-H23 lung): 1.03 µM | TGI (NCI-H23 lung): 4.77 µM | GI50 (NCI-H460 lung): 0.739 µM | TGI (NCI-H460 lung): 10.7 µM | GI50 (NCI-H522 lung): 0.586 µM | TGI (NCI-H522 lung): 7.69 µM | GI50 (NCI/ADR-RES ovarian): 1.41 µM | TGI (NCI/ADR-RES ovarian): 6.95 µM | GI50 (OVCAR-3 ovarian): 0.641 µM | TGI (OVCAR-3 ovarian): 8.85 µM | GI50 (OVCAR-4 ovarian): 0.887 µM | TGI (OVCAR-4 ovarian): 28.1 µM | GI50 (OVCAR-5 ovarian): 3.84 µM | TGI (OVCAR-5 ovarian): > 100 µM | GI50 (OVCAR-8 ovarian): 1.7 µM | TGI (OVCAR-8 ovarian): > 26.2 µM | GI50 (PC-3 prostate): 1.87 µM | TGI (PC-3 prostate): 7.81 µM | GI50 (RPMI-8226 leukemia): 0.446 µM | TGI (RPMI-8226 leukemia): 2.97 µM | GI50 (RXF 393 renal): 1.05 µM | TGI (RXF 393 renal): 4.47 µM | GI50 (SF-268 CNS): 0.917 µM | TGI (SF-268 CNS): 9.23 µM | GI50 (SF-295 CNS): 1.78 µM | TGI (SF-295 CNS): 3.54 µM | GI50 (SF-539 CNS): 0.854 µM | TGI (SF-539 CNS): 6.4 µM | GI50 (SK-MEL-2 melanoma): 0.69 µM | TGI (SK-MEL-2 melanoma): 4.5 µM | GI50 (SK-MEL-28 melanoma): 0.522 µM | TGI (SK-MEL-28 melanoma): 3.03 µM | GI50 (SK-MEL-5 melanoma): 0.323 µM | TGI (SK-MEL-5 melanoma): 1.08 µM | GI50 (SK-OV-3 ovarian): 0.672 µM | TGI (SK-OV-3 ovarian): 4.48 µM | GI50 (SN12C renal): 0.82 µM | TGI (SN12C renal): 5.16 µM | GI50 (SNB-19 CNS): 0.506 µM | TGI (SNB-19 CNS): > 100 µM | GI50 (SNB-75 CNS): 0.572 µM | TGI (SNB-75 CNS): 2.8 µM | GI50 (SR leukemia): 0.798 µM | TGI (SR leukemia): > 100 µM | GI50 (SW-620 colon): 1.84 µM | TGI (SW-620 colon): 11.2 µM | GI50 (T-47D breast): 0.597 µM | TGI (T-47D breast): 5.65 µM | GI50 (TK-10 renal): 4.19 µM | TGI (TK-10 renal): 18.9 µM | GI50 (U251 CNS): 1.26 µM | TGI (U251 CNS): > 39.2 µM | GI50 (UACC-257 melanoma): 0.915 µM | TGI (UACC-257 melanoma): 5.59 µM | GI50 (UACC-62 melanoma): 0.33 µM | TGI (UACC-62 melanoma): 1.41 µM | GI50 (UO-31 renal): 0.349 µM | TGI (UO-31 renal): 3.03 µM
